The assay has as its system chronic cyclophosphamide (CYP)-induced overactive bladder mouse model. The assay is described as follows: Overactive Bladder In Vivo Model (chronic cyclophosphamide-induced OAB). To be noted: for Mean Voiding Frequency (no./4 hr) / Mean Volume/Void: oral daily, day 8, female C57/Bl6 mice. On the procedure:
The in vivo effect of PDE4 inhibitors on OAB is studied with a chronic cyclophosphamide (CYP)-induced overactive bladder mouse model adapted from Boudes et al., Neurourol. Urodynam. 2011. In a typical study, female C57/Bl6 mice, approximately 20 grams in body weight (Harlan Laboratories, Inc., Indianapolis, Ind.) are used. Mice are randomized by body weight into groups one day before the start of the study. Mice are individually housed and maintained on a 12 hour light/dark cycle at 22° C. with ad lib access to food (TD 2014 with 0.72% Ca and 0.61% P, 990 IU/g D3, Teklad™, Madison, Wis.) and water. Animals receive cyclophosphamide (dissolved in physiological saline) i.p. administration at 100 mg/kg on days 1, 3, 5, and 7 to chronically induce OAB. The vehicle control group received daily vehicle (HEC 1%/Tween 80 0.25%/Antifoam 0.05%) administered orally. All other groups are administered orally tadalafil at 10 mg/kg in combination with 0.1, 1.0, or 10.0 mg/kg of test compound daily at a volume of 200 μl/mouse. On day 8, mice are housed in urine collection chambers with a filter paper placed underneath chamber. Prior to urine collection, gavages of 1 ml water are given to each mouse. Urine is collected from 6 pm to 10 pm (i.e. for 4 hrs). Gel cups (DietGel™ 76A) are supplied as water source during the 4 hour period. The filter paper is changed every hour. Voiding frequency and volume/void are calculated using Image J software (NIH). Data are statistically analyzed with JMP8® software (Cary, N. C.).
All treatment groups receive a fixed dose of 10 mg/kg of tadalafil.

Where [1] appears, read: Example 2 0.1 mg/kg + tadalafil 10 mg/kg.
Where [2] appears, read: Example 2 1.0 mg/kg + tadalafil 10 mg/kg.
The mark [3] stands for this setting: Example 2 10.0 mg/kg + tadalafil 10 mg/kg.
Where [4] appears, read: given with tadalafil 10 mg/kg, 0.1, 1.0, 10.0 mg/kg oral daily.

Structures are written as SMILES.

For the compound `COc1ccc([C@@H]2CN(C(=O)[C@@H](O)CO)C[C@@]2(C)[C@@H](C)O)cc1OC1CN(c2ccc(C)cn2)C1` [Example 2, (2S)-3-[(3S,4S)-3-[(1R)-1-hydroxyethyl]-4-(4-methoxy-3-{[1-(5-methylpyridin-2-yl)azetidin-3-yl]oxy}phenyl)-3-methylpyrrolidin-1-yl]-3-oxopropane-1,2-diol], under setting [1], the “Mean Voiding Frequency (no./4 hr)” value was determined as 10 no./4 hr and the Mean Volume/Void turned out to be 47.3 µL. Further, under setting [2], the “Mean Voiding Frequency (no./4 hr)” value stood at 8.61 no./4 hr and the Mean Volume/Void amounted to 77.2 µL. Under setting [3], the “Mean Voiding Frequency (no./4 hr)” value turned out to be 8.38 no./4 hr and the Mean Volume/Void turned out to be 81.9 µL. Moreover, under setting [4], the “effect on urinary frequency (in words)” value is recorded as “significantly reduces urinary frequency in a dose-dependent fashion” and the “effect on volume/void (in words)” value was “increases of volume/void are also observed in a dose-dependent fashion”.

Source of the values: US10065942B2, “Crystalline (2S)-3-[(3S,4S)-3-[(1R)-1-hydroxyethyl]-4-(4-methoxy-3-{[1-(5-methylpyridin-2-yl)azetidin-3-yl]oxy}phenyl)-3-methylpyrrolidin-1-yl]-3-oxopropane-1,2-diol” (Eli Lilly and Company, priority 2014, dated 2018).
